Data on five compounds can be found in patent US10981873B2 (priority 2016, dated 2021).

The target in experiment [1] is Botulinum toxin type B endopeptidase (BoNT/B-LC) (Clostridium botulinum, UniProt P10844). Format: biochemical.
The target in experiment [2] is Botulinum toxin type A endopeptidase (BoNT/A-LC) (Clostridium botulinum, UniProt P0DPI0). Format: biochemical.
In experiment [3] the test system is Botulinum toxin type A (BoNT/A). The arrangement: species or system Balb/c mice. The following applies: mouse, in vivo.
Experiment [4] has as its system Botulinum toxin type B (BoNT/B). On the set-up: species or system Balb/c mice. The following applies: mouse, in vivo.
The next experiment concerns N2a cells. As to conditions: cited from earlier work.

Sequence of Botulinum toxin type B endopeptidase (BoNT/B-LC) (P10844 2-441 limits assumed): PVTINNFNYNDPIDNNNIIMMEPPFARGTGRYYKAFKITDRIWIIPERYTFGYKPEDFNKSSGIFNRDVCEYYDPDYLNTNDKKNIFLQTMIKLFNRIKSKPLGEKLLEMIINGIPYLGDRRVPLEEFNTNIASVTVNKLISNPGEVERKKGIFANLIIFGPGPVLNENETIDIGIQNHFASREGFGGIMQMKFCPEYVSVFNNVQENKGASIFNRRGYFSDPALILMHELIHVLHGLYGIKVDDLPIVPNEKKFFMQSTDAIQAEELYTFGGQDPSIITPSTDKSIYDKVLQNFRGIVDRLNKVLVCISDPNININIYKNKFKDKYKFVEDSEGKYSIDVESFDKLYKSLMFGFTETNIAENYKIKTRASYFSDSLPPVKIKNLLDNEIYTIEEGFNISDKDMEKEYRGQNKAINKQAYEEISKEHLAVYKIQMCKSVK
Sequence of Botulinum toxin type A endopeptidase (BoNT/A-LC) (P0DPI0 2-448 limits assumed): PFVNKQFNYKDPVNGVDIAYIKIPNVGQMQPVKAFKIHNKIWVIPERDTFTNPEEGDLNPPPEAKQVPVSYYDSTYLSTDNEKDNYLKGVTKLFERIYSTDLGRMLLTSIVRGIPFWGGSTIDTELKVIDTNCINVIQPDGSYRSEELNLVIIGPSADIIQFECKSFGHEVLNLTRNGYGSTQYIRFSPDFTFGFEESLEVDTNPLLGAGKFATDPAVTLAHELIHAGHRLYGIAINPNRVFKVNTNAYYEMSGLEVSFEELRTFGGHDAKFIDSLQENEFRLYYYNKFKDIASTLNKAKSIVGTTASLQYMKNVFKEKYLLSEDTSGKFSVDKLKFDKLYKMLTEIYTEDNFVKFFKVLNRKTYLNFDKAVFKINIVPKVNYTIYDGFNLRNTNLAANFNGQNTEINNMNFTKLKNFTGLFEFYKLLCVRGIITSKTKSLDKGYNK

Take `O=C(CS(=O)(=O)c1ncccc1C(=O)O)Nc1cc(Cl)ccc1Oc1ccccc1` [Compound 2b, 2-((2-((5-chloro-2-phenoxyphenyl)amino)-2-oxoethyl)sulfonyl)nicotinic acid]: the Inhibition rate % was 0% in experiment [1] and 5% in experiment [2]. For the same compound, the Survival rate % in experiment [3] and in experiment [4] was 0% in each case.
On to `CCOc1ccc(C(Nc2cccnc2)c2cc(Cl)c3cccnc3c2O)cc1` (centres unmarked) [CB7969312], for which the “neutralization of toxicity of botulinum toxin type A to N2a cells” value in the experiment on N2a cells is reported as “effectively neutralizes the toxicity”.
`COc1ccc(Cl)cc1NC(=O)CS(=O)(=O)c1cc(C(=O)O)ccn1` [Compound 2a, 2-((2-((5-chloro-2-methoxyphenyl)amino)-2-oxoethyl)sulfonyl)isonicotinic acid]: the figures for the Inhibition rate % in experiment [1] and in experiment [2] were 0% and 10%, respectively. The Survival rate % in experiment [3] and in experiment [4] was 0% each time.
`COc1ccc(Cl)cc1NC(=O)COc1ncccc1C(=O)O` [Compound 6a, 2-(2-((5-chloro-2-methoxyphenyl)amino)-2-oxoethoxy)nicotinic acid]: the Inhibition rate % in experiment [1] is 80%; in experiment [2], 0%. Moreover, the Survival rate % worked out at 60% in experiment [3] and 20% in experiment [4].
On to `COc1ccc(Cl)cc1NC(=O)C[S+]([O-])c1ncccc1C(=O)O` (centres unmarked) [Compound 2c, 2-((2-((5-chloro-2-methoxyphenyl)amino)-2-oxoethyl)sulfinyl)nicotinic acid], for which the Inhibition rate % in experiment [1] is on record as 35%; in experiment [2], 60.0%. The Survival rate % is 100% in experiment [3] and 20% in experiment [4].
